{"source": "patent US9981023B2", "about": "“Compositions and methods for inducing immune tolerance” (The Scripps Research Institute, priority 2010, dated 2018)", "molecular_target": "T1, CD22 (Mus musculus, UniProt P35329)", "T1 sequence (P35329 22-868)": "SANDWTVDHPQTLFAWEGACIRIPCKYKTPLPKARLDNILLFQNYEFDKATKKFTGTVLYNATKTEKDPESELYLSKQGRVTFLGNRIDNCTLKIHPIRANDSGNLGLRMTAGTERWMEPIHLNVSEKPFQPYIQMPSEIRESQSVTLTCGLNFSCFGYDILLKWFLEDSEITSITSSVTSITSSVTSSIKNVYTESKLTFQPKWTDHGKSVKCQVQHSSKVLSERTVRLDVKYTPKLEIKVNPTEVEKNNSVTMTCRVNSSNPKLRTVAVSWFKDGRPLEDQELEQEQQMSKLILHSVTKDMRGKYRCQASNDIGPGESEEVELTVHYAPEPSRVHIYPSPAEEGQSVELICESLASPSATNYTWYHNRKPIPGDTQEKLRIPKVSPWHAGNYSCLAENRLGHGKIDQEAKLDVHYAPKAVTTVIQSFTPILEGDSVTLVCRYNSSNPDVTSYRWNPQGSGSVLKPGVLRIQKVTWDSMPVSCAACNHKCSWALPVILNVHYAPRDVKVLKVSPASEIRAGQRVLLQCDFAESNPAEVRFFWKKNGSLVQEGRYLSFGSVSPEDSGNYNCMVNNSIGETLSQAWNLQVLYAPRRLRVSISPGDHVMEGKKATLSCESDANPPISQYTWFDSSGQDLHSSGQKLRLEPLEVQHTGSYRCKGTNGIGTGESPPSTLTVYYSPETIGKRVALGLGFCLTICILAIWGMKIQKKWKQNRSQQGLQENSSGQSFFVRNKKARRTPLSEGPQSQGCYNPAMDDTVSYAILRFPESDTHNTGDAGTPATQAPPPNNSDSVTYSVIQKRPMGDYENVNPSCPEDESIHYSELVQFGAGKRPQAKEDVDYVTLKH", "assay": "Affinity of glycan ligand for CD22", "assay_type": "binding", "settings": "natural ligand of CD22 relative to ^BPANeuGc"}
{"smiles": "CC(=O)NC1C(O)OC(CO)C(OC2OC(COC3(C(=O)O)CC(O)C(NC(=O)CO)C(C(O)C(O)CO)O3)C(O)C(O)C2O)C1O", "note": "(stereo not shown) [NeuGcα2-6Galβ1-4GlcNAc]", "values": [{"measurement": "affinity lower than the ^BPANeuGc ligand", "result": "approximately 200 fold"}]}
